# Test results reported in patent US12077503B2, “Substituted cyclic amides and their use as herbicides” (FMC CORPORATION, priority 2015, dated 2024).
# Legend:
# Type in all cases: in vivo
# [1] = test system: Kochia (Kochia scoparia); assay: Test A preemergence
# In short: (§1)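 Ratings of 0 (no effect) to 100 (complete control) come from visual comparison with untreated controls roughly 10 d after treatment. Test chemicals, formulated in a non-phytotoxic solvent mixture with surfactant, were applied either as a preemergence directed soil spray on seeded soil or postemergence to one- to two-leaf plants 2 to 10 cm tall.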
# [2] = test system: barnyardgrass (Echinochloa crus-galli); assay: Test A preemergence
# In short: as §1
# [3] = test system: giant foxtail (Setaria faberii); assay: Test A preemergence
# In short: as §1
# [4] = test system: pigweed (Amaranthus retroflexus); assay: Test A preemergence
# [5] = test system: ragweed (common ragweed, Ambrosia elatior); assay: Test A preemergence
# In short: as §1
# [6] = test system: ryegrass, Italian (Italian ryegrass, Lolium multiflorum); assay: Test A preemergence
# In short: as §1
# [7] = test system: Galium (catchweed bedstraw, Galium aparine); assay: Test A postemergence; conditions: postemergence
# In short: as §1
# [8] = test system: Kochia (Kochia scoparia); assay: Test A postemergence; conditions: postemergence
# In short: as §1
# [9] = test system: barnyardgrass (Echinochloa crus-galli); assay: Test A postemergence
# In short: as §1
# [10] = test system: blackgrass (Alopecurus myosuroides); assay: Test A postemergence
# In short: as §1
# [11] = test system: corn (Zea mays); assay: Test A postemergence; conditions: postemergence
# In short: as §1
# [12] = test system: giant foxtail (Setaria faberii); assay: Test A postemergence; conditions: postemergence
# In short: as §1
# [13] = test system: pigweed (Amaranthus retroflexus); assay: Test A postemergence; conditions: postemergence
# In short: as §1
# [14] = test system: ragweed (common ragweed, Ambrosia elatior); assay: Test A postemergence; conditions: postemergence
# In short: as §1
# [15] = test system: ryegrass, Italian (Italian ryegrass, Lolium multiflorum); assay: Test A postemergence; conditions: postemergence
# In short: as §1
# [16] = test system: wheat (Triticum aestivum); assay: Test A postemergence; conditions: postemergence
# In short: as §1
# [17] = test system: barnyardgrass (Echinochloa crus-galli); assay: Test B flooded paddy test; conditions: Flood, 250 g ai/ha; 0 to 100 scale where 0 is no effect and 100 is complete control; 13 to 15 d
# In short: (§2)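 Percent control, visually estimated after 13–15 d in the greenhouse on a 0–100 basis, compares treated pots with untreated ones; compound was put into paddy water 3 cm above the soil when plants had two leaves.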
# [18] = test system: ducksalad (Heteranthera limosa); assay: Test B flooded paddy test; conditions: Flood, 250 g ai/ha; 0 to 100 scale where 0 is no effect and 100 is complete control; 13 to 15 d
# In short: as §2
# [19] = test system: rice (Oryra sativa); assay: Test B flooded paddy test; conditions: Flood, 250 g ai/ha; 0 to 100 scale where 0 is no effect and 100 is complete control; 13 to 15 d
# In short: as §2
# [20] = test system: sedge, umbrella (small-flower umbrella sedge, Cyperus difformis); assay: Test B flooded paddy test; conditions: Flood, 250 g ai/ha; 0 to 100 scale where 0 is no effect and 100 is complete control; 13 to 15 d
# In short: as §2
# [21] = 125 g ai/ha, preemergence, 0 to 100 scale (0 no effect, 100 complete control)
# [22] = Preemergence, 500 g ai/ha, 0 is no effect, 100 is complete control
# [23] = 125 g ai/ha, visual injury rating on 0 to 100 scale (0 no effect, 100 complete control), approx. 10 d
# [24] = 500 g ai/ha, 0 to 100 scale, 0 no effect, 100 complete control
# [25] = 500 g ai/ha, postemergence, 0 to 100 scale, 0 no effect, 100 complete control
# [26] = Postemergence, 125 g ai/ha, visual injury, 0 to 100 scale (0 no effect, 100 complete control), approx. 10 d
# [27] = 125 g ai/ha, Preemergence, visual injury after approximately 10 d, 0 to 100 scale where 0 is no effect and 100 is complete control
# [28] = 500 g ai/ha, preemergence, 0 to 100 scale, 0 = no effect, 100 = complete control
# [29] = 125 g ai/ha, visual rating after approx. 10 d, 0 to 100 scale (0 no effect, 100 complete control)
# [30] = 500 g ai/ha, visual injury, 0 to 100 scale (0 no effect, 100 complete control), approx. 10 d
# [31] = 125 g ai/ha, postemergence, visual rating after approx. 10 d, 0 to 100 scale (0 no effect, 100 complete control)
# [32] = 500 g ai/ha, postemergence, visual injury, 0 to 100 scale (0 no effect, 100 complete control), approx. 10 d
compound,measurement,setting,value
O=C1NCC(c2cccc(OC(F)(F)C(F)F)c2)C1C(=O)Nc1ccccc1C(F)F (stereo not drawn) [Compound 391],"Plant response rating, Kochia",[1]; [21],30
same,Kochia plant response rating (0 to 100 scale),[1]; [22],50
same,"Plant response rating, Barnyardgrass",[2]; [21],80
same,Barnyardgrass plant response rating (0 to 100 scale),[2]; [22],90
same,"Plant response rating, Foxtail, Giant",[3]; [21],90
same,"Foxtail, Giant plant response rating (0 to 100 scale)",[3]; [22],90
same,"Plant response rating, Pigweed",[4]; [21],70
same,Pigweed plant response rating (0 to 100 scale),[4]; [22],70
same,"Plant response rating, Ragweed",[5]; [21],80
same,Ragweed plant response rating (0 to 100 scale),[5]; [22],80
same,"Plant response rating, Ryegrass, Italian",[6]; [21],20
same,"Ryegrass, Italian plant response rating (0 to 100 scale)",[6]; [22],50
same,Galium plant response rating,[7]; [23],60
same,"Plant response rating, Galium",[7]; [24],60
same,Kochia plant response rating,[8]; [23],0
same,"Plant response rating, Kochia",[8]; [24],60
same,"Plant response rating, Barnyardgrass",[9]; [25],80
same,"Plant response rating, Barnyardgrass",[9]; [26],60
same,"Plant response rating, Blackgrass",[10]; [25],70
same,"Plant response rating, Blackgrass",[10]; [26],50
same,Corn plant response rating,[11]; [23],40
same,"Plant response rating, Corn",[11]; [24],70
same,"Foxtail, Giant plant response rating",[12]; [23],90
same,"Plant response rating, Foxtail, Giant",[12]; [24],90
same,Pigweed plant response rating,[13]; [23],30
same,"Plant response rating, Pigweed",[13]; [24],50
same,Ragweed plant response rating,[14]; [23],20
same,"Plant response rating, Ragweed",[14]; [24],30
same,"Ryegrass, Italian plant response rating",[15]; [23],30
same,"Plant response rating, Ryegrass, Italian",[15]; [24],40
same,Wheat plant response rating,[16]; [23],0
same,"Plant response rating, Wheat",[16]; [24],50
same,"Plant response rating, Barnyardgrass",[17],40
same,"Plant response rating, Ducksalad",[18],100
same,"Plant response rating, Rice",[19],0
same,"Plant response rating, Sedge, Umbrella",[20],0
Cc1ccc(C2CNC(=O)C2C(=O)Nc2cccc(F)c2F)cc1C(F)(F)F (racemic) [Compound 679],"Plant response rating, Kochia",[1]; [27],30
same,"Plant response rating, Kochia",[1]; [28],60
same,"Plant response rating, Barnyardgrass",[2]; [27],80
same,"Plant response rating, Barnyardgrass",[2]; [28],90
same,"Plant response rating, Foxtail, Giant",[3]; [27],90
same,"Plant response rating, Foxtail, Giant",[3]; [28],90
same,"Plant response rating, Pigweed",[4]; [27],0
same,"Plant response rating, Pigweed",[4]; [28],40
same,"Plant response rating, Ragweed",[5]; [27],0
same,"Plant response rating, Ragweed",[5]; [28],30
same,"Plant response rating, Ryegrass, Italian",[6]; [27],20
same,"Plant response rating, Ryegrass, Italian",[6]; [28],30
same,"Plant response rating, Galium",[7]; [29],40
same,"Plant response rating, Galium",[7]; [30],60
same,"Plant response rating, Kochia",[8]; [29],0
same,"Plant response rating, Kochia",[8]; [30],0
same,"Plant response rating, Barnyardgrass",[9]; [31],40
same,"Plant response rating, Barnyardgrass",[9]; [32],70
same,"Plant response rating, Blackgrass",[10]; [31],30
same,"Plant response rating, Blackgrass",[10]; [32],60
same,"Plant response rating, Corn",[11]; [29],20
same,"Plant response rating, Corn",[11]; [30],50
same,"Plant response rating, Foxtail, Giant",[12]; [29],0
same,"Plant response rating, Foxtail, Giant",[12]; [30],30
same,"Plant response rating, Pigweed",[13]; [29],0
same,"Plant response rating, Pigweed",[13]; [30],40
same,"Plant response rating, Ragweed",[14]; [29],0
same,"Plant response rating, Ragweed",[14]; [30],20
same,"Plant response rating, Ryegrass, Italian",[15]; [29],0
same,"Plant response rating, Ryegrass, Italian",[15]; [30],20
same,"Plant response rating, Wheat",[16]; [29],0
same,"Plant response rating, Wheat",[16]; [30],20
same,"Plant response rating, Barnyardgrass",[17],30
same,"Plant response rating, Ducksalad",[18],55
same,"Plant response rating, Rice",[19],0
same,"Plant response rating, Sedge, Umbrella",[20],0
